Each block holds one compound with its values, some of them ahead of it.
Assays:
[1] = test system: S. aureus 6538; assay: Activity test: preservative challenge test in emulsion, S. aureus 6538; type: cell-based; conditions: 0.5% preservative in emulsion; for number of colonies per milliliter, 28 days: reinoculated at 21 days
Experimental: (§1) The emulsion was prepared by separately mixing components in phase A and phase B at 75-80° C. for 15 minutes. The phases were then combined and mixed for another 10 minutes and cooled to 45° C. with stirring. Preservative was then added followed by citric acid to adjust pH to from abut 6.5 to 7.5. Stirring of the resulting mixture was continued until a temperature of 30° C. was reached. The activity tests were carried out using the following microorganisms: A. niger, B. cepacia, C. albicans, E. coli, P. aeruginosa and S. aureus. 50 g aliquots of the test emulsion containing various amounts of the preservative admixture as reported in Tables I-V were inoculated with approximately 10^7 -10^8 of the test organisms. The test samples then were stirred to disperse the challenge inoculum. The samples were incubated and assayed at 48 hours, 7, 14, 21 and 28 days. The assays were performed on 1 g, of the test sample by serially diluting 10^3 to 10^6 of the original concentration. The plating medium for bacteria was Letheen agar and for fungi it was low pH Mycophil agar with Tween 20. Each plated sample was incubated for 48 hours at 37° C. for bacteria, 5 days at 25° C. for mold and 3 days at 25° C. for fungi. After incubation, readings of the number of colonies per milliliter (cfu/ml) were made results were determined, as reported in associated Tables IA-VA. At 21 days the test product was reinoculated with half of the original inoculum.

[2] = test system: B. cepacia 25416; assay: Activity test: preservative challenge test in emulsion, B. cepacia 25416; type: cell-based; conditions: 0.5% preservative in emulsion; for number of colonies per milliliter, 28 days: reinoculated at 21 days
Experimental: as §1

[3] = test system: E. coli 8739; assay: Activity test: preservative challenge test in emulsion, E. coli 8739; type: cell-based; conditions: 0.5% preservative in emulsion; for number of colonies per milliliter, 28 days: reinoculated at 21 days
Experimental: as §1

[4] = test system: C. albicans 10231; assay: Activity test: preservative challenge test in emulsion, C. albicans 10231; type: cell-based; conditions: 0.5% preservative in emulsion; for number of colonies per milliliter, 28 days: reinoculated at 21 days
Experimental: as §1

[5] = test system: P. aeruginosa 9027; assay: Activity test: preservative challenge test in emulsion, P. aeruginosa 9027; type: cell-based; conditions: 0.5% preservative in emulsion; for number of colonies per milliliter, 28 days: reinoculated at 21 days
Experimental: as §1

[6] = test system: A. niger 16404; assay: Activity test: preservative challenge test in emulsion, A. niger 16404; type: cell-based; conditions: 0.5% preservative in emulsion; for number of colonies per milliliter, 28 days: reinoculated at 21 days
Experimental: as §1

[7] = about 10 ppm, beer preservative; cited from earlier work
[8] = Partition coefficients (log of oil/water solubility)
Description: A greater water partitioning is indicated by a low log value.

Compound: CC=CC=CCOC(=O)c1ccc(O)cc1 [2,4-Hexadienyl-4-Hydroxybenzoate]
number of colonies per milliliter, 48 hr [1]: < 10 cfu/ml
number of colonies per milliliter, 7 days [1]: < 10 cfu/ml
number of colonies per milliliter, 14 days [1]: < 10 cfu/ml
number of colonies per milliliter, 21 days [1]: < 10 cfu/ml
number of colonies per milliliter, 28 days [1]: < 10 cfu/ml
number of colonies per milliliter, 48 hr [2]: < 10^6 cfu/ml
number of colonies per milliliter, 7 days [2]: < 10^6 cfu/ml
number of colonies per milliliter, 14 days [2]: < 10^6 cfu/ml
number of colonies per milliliter, 21 days [2]: < 10^6 cfu/ml
number of colonies per milliliter, 28 days [2]: < 10^6 cfu/ml
number of colonies per milliliter, 48 hr [3]: < 10 cfu/ml
number of colonies per milliliter, 7 days [3]: < 10 cfu/ml
number of colonies per milliliter, 14 days [3]: < 10 cfu/ml
number of colonies per milliliter, 21 days [3]: < 10 cfu/ml
number of colonies per milliliter, 28 days [3]: < 10 cfu/ml
number of colonies per milliliter, 48 hr [4]: < 10 cfu/ml
number of colonies per milliliter, 7 days [4]: < 10 cfu/ml
number of colonies per milliliter, 14 days [4]: < 10 cfu/ml
number of colonies per milliliter, 21 days [4]: < 10 cfu/ml
number of colonies per milliliter, 28 days [4]: < 10 cfu/ml
number of colonies per milliliter, 48 hr [5]: < 10 cfu/ml
number of colonies per milliliter, 7 days [5]: < 10 cfu/ml
number of colonies per milliliter, 14 days [5]: < 10 cfu/ml
number of colonies per milliliter, 21 days [5]: < 10 cfu/ml
number of colonies per milliliter, 28 days [5]: < 10 cfu/ml
number of colonies per milliliter, 48 hr [6]: 4800 cfu/ml
number of colonies per milliliter, 7 days [6]: < 10 cfu/ml
number of colonies per milliliter, 14 days [6]: < 10 cfu/ml
number of colonies per milliliter, 21 days [6]: < 10 cfu/ml
number of colonies per milliliter, 28 days [6]: < 10 cfu/ml

Compound: CCCCCCCOC(=O)c1ccc(O)cc1 [heptyl p-hydroxybenzoate]
solubility in beer [7]: limited solubility in beer so that the beer becomes turbid at about 0 °C

Compound: CC=CC=CCOC(=O)c1ccc(O)cc1O [2,4-Hexadienyl-2,4-dihydroxybenzoate, 2,4-Hexadienyl-2,4-Dihydroxybenzoate]
number of colonies per milliliter, 48 hr [1]: < 10 cfu/ml
number of colonies per milliliter, 7 days [1]: < 10 cfu/ml
number of colonies per milliliter, 14 days [1]: < 10 cfu/ml
number of colonies per milliliter, 21 days [1]: < 10 cfu/ml
number of colonies per milliliter, 28 days [1]: < 10 cfu/ml
number of colonies per milliliter, 48 hr [2]: < 10^6 cfu/ml
number of colonies per milliliter, 7 days [2]: < 10^6 cfu/ml
number of colonies per milliliter, 14 days [2]: < 10^6 cfu/ml
number of colonies per milliliter, 21 days [2]: < 10^6 cfu/ml
number of colonies per milliliter, 28 days [2]: < 10^6 cfu/ml
number of colonies per milliliter, 48 hr [3]: < 10 cfu/ml
number of colonies per milliliter, 7 days [3]: < 10 cfu/ml
number of colonies per milliliter, 14 days [3]: < 10 cfu/ml
number of colonies per milliliter, 21 days [3]: < 10 cfu/ml
number of colonies per milliliter, 28 days [3]: < 10 cfu/ml
number of colonies per milliliter, 48 hr [4]: < 10 cfu/ml
number of colonies per milliliter, 7 days [4]: < 10 cfu/ml
number of colonies per milliliter, 14 days [4]: < 10 cfu/ml
number of colonies per milliliter, 21 days [4]: < 10 cfu/ml
number of colonies per milliliter, 28 days [4]: < 10 cfu/ml
number of colonies per milliliter, 48 hr [5]: < 10 cfu/ml
number of colonies per milliliter, 7 days [5]: < 10 cfu/ml
number of colonies per milliliter, 14 days [5]: < 10 cfu/ml
number of colonies per milliliter, 21 days [5]: < 10 cfu/ml
number of colonies per milliliter, 28 days [5]: < 10 cfu/ml
number of colonies per milliliter, 48 hr [6]: 4200 cfu/ml
number of colonies per milliliter, 7 days [6]: 30 cfu/ml
number of colonies per milliliter, 14 days [6]: < 10 cfu/ml
number of colonies per milliliter, 21 days [6]: < 10 cfu/ml
number of colonies per milliliter, 28 days [6]: < 10 cfu/ml

Log P [8]: 2.47
Compound: CCOC(=O)c1ccc(O)cc1 [Parahydroxy ethyl benzoate]

— patent US6316500A, “Aliphatically unsaturated hydroxy benzoates and preservative compositions thereof” (ISP Investments Inc., priority 1999, dated 2001)
